The assay has as its system Human immunodeficiency virus. Put plainly: In vitro inhibitory activity against HIV was determined. The assay is classed as functional, organism-based. The settings on record: Human immunodeficiency virus 1.

Consider `Cc1cn([C@H]2C[C@H](O)[C@](CO)(N=[N+]=[N-])O2)c(=O)[nH]c1=O`, for which the half-inhibitory concentration (IC50) is 10 nM.

Values taken from ChEMBL document CHEMBL1127324, “Solid-state and solution conformations of the potent HIV inhibitor, 4'-azidothymidine” (J Med Chem, 1994).
